A short description of one data set: in vitro. As to conditions: human, kidney or brush border membranes, pH 7.4.
Another data set has as its system NIH/Swiss mice. As to the kind of experiment: Oral glucose tolerance test (OGTT), glucose lowering. The format is in vivo. The conditions noted are these: IP injection, 2 hour fasted NIH/Swiss mice, FIGS. 5 and 6. As to the method: . Test compounds were injected IP (t=0 min) immediately following baseline measurements of 2 hour fasted NIH/Swiss mice. Blood samples were taken at 60, 120, and 180 minutes after injection. In some assays, samples were also taken at 240 minutes after the injection. Blood glucose was measured with a One-Touch® Ultra® glucose meter (LifeScan, Inc., Milpitas, Calif.). […].
The tests were performed as described in Example 5.

The subject of data set [1] is Dahl salt-sensitive (DSS) male rats. As to the kind of experiment: Congestive heart failure (CHF) in vivo assay. The conditions noted are these: 10 μg/kg/day subcutaneous infusion, high-salt diet.
Method: In this assay, Dahl salt-sensitive (DSS) male rats were weaned at 21 days of age, maintained on a low-salt (LS) diet (0.2% NaCl) for 2 weeks. Rats were anesthetized with ketamine/xylazine (50 mg/kg/10 mg/kg, IP) and telemetry transmitters (Data Sciences, Inc.) were inserted to the aortic artery when rats were at 5 weeks of age. After surgery, the rats were allowed 10 days to recuperate before their BP (systolic and diastolic pressures) was recorded.
HS control animals (n=10 rats) were administered vehicle (50% DMSO) and fed HS in the same manner. LS control animals (n=5 rats) were maintained on the LS diet.
Another data set has as its target T1, ACE from rabbit lung (Oryctolagus cuniculus, UniProt P12822).
T1 construct: ACE from rabbit lung; purchased Sigma Chemical Co; host or cells: rabbit lung tissue
T1 sequence (P12822 34-1310): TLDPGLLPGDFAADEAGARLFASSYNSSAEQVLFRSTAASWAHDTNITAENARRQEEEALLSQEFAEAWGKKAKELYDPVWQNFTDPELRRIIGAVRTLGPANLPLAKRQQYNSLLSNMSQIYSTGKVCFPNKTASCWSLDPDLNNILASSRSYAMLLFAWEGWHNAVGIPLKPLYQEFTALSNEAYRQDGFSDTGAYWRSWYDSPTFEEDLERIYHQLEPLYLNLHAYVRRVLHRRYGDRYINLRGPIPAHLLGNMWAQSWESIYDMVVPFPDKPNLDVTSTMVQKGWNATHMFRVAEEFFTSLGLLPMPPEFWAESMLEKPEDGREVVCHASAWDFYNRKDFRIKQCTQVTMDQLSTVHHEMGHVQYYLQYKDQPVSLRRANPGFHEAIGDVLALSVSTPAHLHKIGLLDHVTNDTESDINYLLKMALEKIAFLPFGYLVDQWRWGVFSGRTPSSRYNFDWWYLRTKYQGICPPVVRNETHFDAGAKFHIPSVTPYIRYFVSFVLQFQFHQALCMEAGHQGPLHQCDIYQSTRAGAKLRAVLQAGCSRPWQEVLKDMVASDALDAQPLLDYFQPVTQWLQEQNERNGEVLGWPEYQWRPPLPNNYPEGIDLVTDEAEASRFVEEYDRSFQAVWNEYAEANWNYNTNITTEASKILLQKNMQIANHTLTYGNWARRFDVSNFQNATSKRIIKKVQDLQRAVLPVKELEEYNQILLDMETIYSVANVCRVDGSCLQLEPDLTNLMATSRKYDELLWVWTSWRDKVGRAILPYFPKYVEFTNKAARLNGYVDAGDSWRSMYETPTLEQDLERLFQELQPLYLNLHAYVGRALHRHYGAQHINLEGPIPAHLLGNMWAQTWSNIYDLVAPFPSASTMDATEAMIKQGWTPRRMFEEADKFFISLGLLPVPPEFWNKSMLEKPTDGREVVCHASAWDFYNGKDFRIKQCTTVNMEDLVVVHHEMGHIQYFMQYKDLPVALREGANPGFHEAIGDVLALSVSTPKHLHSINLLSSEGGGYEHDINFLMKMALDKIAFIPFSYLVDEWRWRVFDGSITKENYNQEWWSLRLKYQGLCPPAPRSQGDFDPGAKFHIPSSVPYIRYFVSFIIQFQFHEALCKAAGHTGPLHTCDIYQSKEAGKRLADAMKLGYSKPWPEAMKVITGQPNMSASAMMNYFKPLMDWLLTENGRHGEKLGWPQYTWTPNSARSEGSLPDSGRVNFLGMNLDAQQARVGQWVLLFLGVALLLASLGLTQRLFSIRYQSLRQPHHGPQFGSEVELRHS
As to the kind of experiment: ACE inhibition assay. It counts as biochemical. As to the method: Peptide-ACE peptidase inhibitor conjugate compounds were assessed in an ACE inhibition assay using purified ACE enzyme and chromogenic substrates. An ACE stock solution was prepared by dissolving 0.1 unit of enzyme (ACE from rabbit lung, Sigma Chemical Co., St. Louis, Mo.) in 0.640 mL of HEPES buffer (0.1 M, pH=8). A 2 mM stock solution of substrate (N-benzyloxycarbonyl-Phe-His-Leu-OH) dissolved in methanol. The ACE inhibitor compounds were dissolved in phosphate buffer (0.1 M, pH=8) at concentrations of 0.0, 1, 10, 20, 60 and 100 μM. For the inhibition assay, six 2 mL microcentrifuge tubes were prepared containing 1.45 mL of phosphate buffer pH=8, 0.05 mL of 10% NaCl and 0.015 mL of substrate solution. To each microcentrifuge tube was added 0.015 mL of one of the ACE inhibitor compound's stock solutions. The solutions were heated at 37° C. for about 5 minutes. The reaction was started by the addition of 5 μL of the ACE stock solution to each tube mixture (30 seconds in between). The reaction mixtures were incubated at 37° C. After 5 min, 10 min, 30 min and 60 min., aliquots of 100 μL were taken from each tube (each sample was taken in intervals of 30 seconds). Tubes containing the 100 μL sample were floated in a boiling water bath for 5 min. and then cooled. The reaction samples were then treated with 20 μL of 2M NaOH and 20 μL of 0.1% phthaldialdehyde solution. The tubes were shaken for 4 minutes and 10 μL of 6 M HCl were added. […] Initial rates were determined from linear portions of product release curves. Starting substrate concentration in all assays was 20 μM. Apparent binding constants (Kd^app or Ki^app) of inhibitors to ACE were determined by fitting inhibition curves (initial rate vs. inhibitor concentration) to equation:
[formula] where v0 is reaction rate in the absence of inhibitor and [I]-inhibitor concentration. Fits were done by least-squares method using KaleidaGraph 3.6 (Synergy Software, Reading Pa.).

A further data set concerns recombinant DPP-IV. Kind of data set: recombinant DPP-IV in assay buffer (25 mM Tris-HCl, 140 mM NaCl, 10 mM KCl, pH 7.4). As to conditions: room temperature, up to 15 hours.

“Also recorded” adds a separate entry of the source.

What is called fraction remaining is what is left of the initial amount, in per cent. A high value points to greater stability. One may read the IC50 as the concentration that gives 50% inhibition.

Method for in vitro: The tubes were incubated in VorTemp 56™ (Eurotech Labs, UK) at 37° C. vortexed at 500 RPM. At time points of 0, 1, 2, 3, 4, and 5 hours, 200 μl STOP solution (50% ACN, 1% formic acid) was added to a given tube, and the samples were allowed to incubate until the end of the experiment. The samples were collected after 5 hours, centrifuged, and 200 μl of the supernatants were transferred into mass spectrometry vials. The intensities of the mother ions in each vial were analyzed with API 150EX™ mass spectrometer (Applied Biosystems, Foster City, Calif.) and quantified using the ANALYST™ program.
The hKBBM assay was also performed in the presence of valinepyrrolidide, a DPP-IV inhibitor.

Molecule `CC[C@H](C)[C@H](NC(=O)[C@H](Cc1ccccc1)NC(=O)[C@H](CCC(=O)O)NC(=O)[C@H](CCCCN)NC(=O)[C@H](C)NC(=O)[C@H](C)NC(=O)[C@H](CCC(N)=O)NC(=O)CNC(=O)[C@H](CCC(=O)O)NC(=O)[C@H](CC(C)C)NC(=O)[C@H](Cc1ccc(O)cc1)NC(=O)[C@H](CO)NC(=O)[C@H](CO)NC(=O)[C@@H](NC(=O)[C@H](CC(=O)O)NC(=O)[C@H](CO)NC(=O)[C@@H](NC(=O)[C@H](Cc1ccccc1)NC(=O)[C@@H](NC(=O)CNC(=O)[C@H](CCC(=O)O)NC(=O)[C@H](C)NC(=O)[C@H](Cc1c[nH]cn1)NC(=O)COCCOCCNC(=O)[C@@H]1CCCN1C(=O)[C@H](C)NC(CCc1ccccc1)C(=O)O)[C@@H](C)O)[C@@H](C)O)C(C)C)C(=O)N[C@@H](C)C(=O)N[C@@H](Cc1c[nH]c2ccccc12)C(=O)N[C@@H](CC(C)C)C(=O)N[C@H](C(=O)N[C@@H](CCCCN)C(=O)NCC(=O)N[C@@H](CCCNC(=N)N)C(N)=O)C(C)C` (stereo partly drawn) [Compound 4983, (R,S)-1-[N^2-(1-carboxy-3-phenylpropyl)-L-ala]-L-pro-8-amino-3,6-dioxaoctanoyl-GLP-1-(7-36) amide] registered a share remaining at 4 h in the data set “in vitro” above 80%. Also, in the data set on NIH/Swiss mice, the “glucose lowering in OGTT (in words)” value was “enhance glucose-lowering action compared to GLP-1”.
The like results for `CC[C@H](C)[C@H](NC(=O)[C@H](Cc1ccccc1)NC(=O)[C@H](CCC(=O)O)NC(=O)[C@H](CCCCN)NC(=O)[C@H](C)NC(=O)[C@H](C)NC(=O)[C@H](CCC(N)=O)NC(=O)CNC(=O)[C@H](CCC(=O)O)NC(=O)[C@H](CC(C)C)NC(=O)[C@H](Cc1ccc(O)cc1)NC(=O)[C@H](CO)NC(=O)[C@H](CO)NC(=O)[C@@H](NC(=O)[C@H](CC(=O)O)NC(=O)[C@H](CO)NC(=O)[C@@H](NC(=O)[C@H](Cc1ccccc1)NC(=O)[C@@H](NC(=O)CNC(=O)[C@H](CCC(=O)O)NC(=O)[C@H](C)NC(=O)[C@H](Cc1c[nH]cn1)NC(=O)COCCOCCNC(=O)COCCOCCNC(=O)[C@@H]1CCCN1C(=O)[C@H](C)NC(CCc1ccccc1)C(=O)O)[C@@H](C)O)[C@@H](C)O)C(C)C)C(=O)N[C@@H](C)C(=O)N[C@@H](Cc1c[nH]c2ccccc12)C(=O)N[C@@H](CC(C)C)C(=O)N[C@H](C(=O)N[C@@H](CCCCN)C(=O)NCC(=O)N[C@@H](CCCNC(=N)N)C(N)=O)C(C)C` (stereo partly drawn) [Compound 4984, (R,S)-1-[N^2-(1-carboxy-3-phenylpropyl)-L-ala]-L-pro-8-amino-3,6-dioxaoctanoyl-8-amino-3,6-dioxaoctanoyl-GLP-1-(7-36) amide] were, in that order, above 80% and “enhance glucose-lowering action compared to GLP-1; also recorded: prolonged effect 4 hours after dosing”.
With `CC[C@H](C)[C@H](NC(=O)[C@H](Cc1ccccc1)NC(=O)[C@H](CC(C)C)NC(=O)[C@H](CCCNC(=N)N)NC(=O)[C@@H](NC(=O)[C@H](C)NC(=O)[C@H](CCC(=O)O)NC(=O)[C@H](CCC(=O)O)NC(=O)[C@H](CCC(=O)O)NC(=O)[C@H](CC(C)C)NC(=O)[C@H](CCC(N)=O)NC(=O)[C@H](CCCCN)NC(=O)[C@H](CO)NC(=O)[C@H](CC(C)C)NC(=O)[C@H](CC(=O)O)NC(=O)[C@H](CO)NC(=O)[C@@H](NC(=O)[C@H](Cc1ccccc1)NC(=O)[C@@H](NC(=O)CNC(=O)[C@H](CCC(=O)O)NC(=O)CNC(=O)[C@@H](N)Cc1c[nH]cn1)[C@@H](C)O)[C@@H](C)O)C(C)C)C(=O)N[C@@H](CCC(=O)O)C(=O)N[C@@H](Cc1c[nH]c2ccccc12)C(=O)N[C@@H](CC(C)C)C(=O)N[C@@H](CCCCN)C(=O)N[C@@H](CCC(N)=O)C(=O)NCC(=O)NCC(=O)N1CCC[C@H]1C(=O)N[C@@H](CO)C(=O)N[C@@H](CCCCN)C(=O)N[C@@H](CCC(=O)O)C(=O)N[C@H](C(=O)N[C@H](C(=O)N[C@@H](CO)C(=O)NCCOCCOCCOCC(=O)NCCOCCOCC(=O)NCCCC[C@H](NC(CCc1ccccc1)C(=O)O)C(=O)N1CCC[C@H]1C(=O)O)[C@@H](C)CC)[C@@H](C)CC` (stereo partly shown) [Compound 5715], in data set [1], the “mean diastolic blood pressure at week 5” value was 112 mmHg, the “mean heart rate at week 5” value was determined as 381 and the “mean systolic blood pressure at week 5” value stood at 161 mmHg. In addition, the IC50 on ACE from rabbit lung is 260 nM.
As for “GLP-1(7-37)-GG-(S)-2,6-diamino-1-(thiazolidin-2-cyano-3-yl)hexan-1-one amide”, the not cleaved result in the data set with recombinant DPP-IV is listed as “expected product ions were not observed; DPP-IV resistant under the test conditions”.
Same read-out and setting: as for “GLP-1(7-37)-GG-(S)-2,6-diamino-1-(thiazolidin-3-yl)hexan-1-one amide”, the entry is “expected product ions were not observed; DPP-IV resistant under the test conditions”.

The values above are taken from patent US8598314B2 (priority 2007, dated 2013).
